{"source": "patent US9789071B2", "about": "(G2B Pharma Inc., priority 2012, dated 2017)", "origin": "cited, not measured here", "key": {"[1]": {"conditions": "dogs"}, "[2]": {"conditions": "IM injection"}, "[3]": {"conditions": "normal human subjects, IM epinephrine injection"}, "[4]": {"conditions": "oral route"}, "[5]": {"conditions": "sublingual doses 5 to 40 mg, as the bitartrate salt"}, "[6]": {"conditions": "dogs", "remark": "listed apart in the source"}, "[7]": {"conditions": "nasal mucosa, needleless high-pressure injection"}}, "data": [{"smiles": "CNC[C@H](O)c1ccc(O)c(O)c1", "note": "[epinephrine]", "values": [{"measurement": "time peak systolic pressure was maintained", "setting": "[1]", "result": "about 180 seconds"}, {"measurement": "peak systolic pressure", "setting": "[1]; at 60 seconds", "result": "200 % of baseline"}, {"measurement": "peak epinephrine levels in the blood", "setting": "[1]; [7]", "result": "~20", "unit": "ng/mL"}, {"measurement": "time of peak (Tmax) epinephrine levels in the blood", "setting": "[1]; [7]", "result": 0.25, "unit": "min"}, {"measurement": "onset of action (Tmax)", "setting": "[2]", "result": "3 to 8", "unit": "min"}, {"measurement": "Tmax", "setting": "[3]", "result": "69 ± 19", "unit": "min"}, {"measurement": "bioavailability", "setting": "[4]", "result": "negligible"}, {"measurement": "plasma concentrations", "setting": "[5]", "result": "equivalent to IM injection"}, {"measurement": "greatest epinephrine plasma concentrations", "setting": "[6]; CPR, 7.5 mg/kg/nostril epinephrine after 0.25 mg/kg/nostril intranasal phentolamine, 1% taurodeoxycholic acid", "result": "~1,400 ng/mL"}, {"measurement": "absolute bioavailability", "setting": "[6]; intranasal, with 1% taurodeoxycholic acid", "result": "quite low"}]}]}
